“And” between values parts separate entries of the source, which are not always exact repeats. Equal values may be shown once. Read-outs that look alike come from different tables or passages of the source.
Tests used:
Aedes aegypti [1] = assay: Co-toxicity assay with permethrin (topical); conditions: for 1-h knockdown Co-Toxicity Factor / 24-h mortality Co-Toxicity Factor: >+20 potentiation, <−20 antagonism, −20 to +20 additive
Protocol: (§1) For Ae. aegypti, synergism assays were performed similar to the topical applications described previously, with the following modifications: 2 doses (2 µg/mosquito and 10 µg/mosquito) of each monoterpenoid were applied as synergists, similar to previous studies exploring the synergistic potential of natural products in combination with an intermediate dose-level of insecticide alone.
(§2) Mosquitoes were transferred to deli cups and kept at a controlled temperature and humidity (the same conditions as described for the topical application of insecticides and monoterpenoids alone). Again, a minimum of 3 separate rearing cohorts were used among replicates of each dose combination.
(§3) Dose responses were modeled via probit analysis, and their resulting estimates were obtained. […] A control correction option (OPTC command) was used to account for responses to the vehicle control treatments. Co-toxicity values were calculated by the method of [29]. A co-toxicity factor of >+20 signifies potentiation, <−20 antagonism, and −20 to +20 additive.

Aedes aegypti [2] = test system: Aedes aegypti
Protocol: as §1, §2, §3

Aedes aegypti [3] = test system: Aedes aegypti; remark: listed apart in the source
Musca domestica [4] = assay: Co-toxicity assay with permethrin (topical); format: in vivo
Protocol: […]. Each dose was formulated in a total volume of 1.5 mL of acetone. A dose of permethrin that produced approximately 50% mortality (18 ng) was used as the treatment. Female flies were sorted into groups of 20 per synergism assay and dosed as previously mentioned (i.e., the same way as in the topical toxicity assays). Flies were assessed for mortality at 24 h.

Musca domestica [5] = conditions: 24 h, topical, adult females, susceptible strain
acetylcholinesterase = acetylcholinesterase (Musca domestica, UniProt Q7YWJ9); assay: In vitro inhibition of acetylcholinesterase (Ellman), head homogenate; format: biochemical; conditions: at 1 mM, M. domestica preparation; read-out: inhibition of AChE
acetylcholinesterase, sequence (Q7YWJ9 81-660): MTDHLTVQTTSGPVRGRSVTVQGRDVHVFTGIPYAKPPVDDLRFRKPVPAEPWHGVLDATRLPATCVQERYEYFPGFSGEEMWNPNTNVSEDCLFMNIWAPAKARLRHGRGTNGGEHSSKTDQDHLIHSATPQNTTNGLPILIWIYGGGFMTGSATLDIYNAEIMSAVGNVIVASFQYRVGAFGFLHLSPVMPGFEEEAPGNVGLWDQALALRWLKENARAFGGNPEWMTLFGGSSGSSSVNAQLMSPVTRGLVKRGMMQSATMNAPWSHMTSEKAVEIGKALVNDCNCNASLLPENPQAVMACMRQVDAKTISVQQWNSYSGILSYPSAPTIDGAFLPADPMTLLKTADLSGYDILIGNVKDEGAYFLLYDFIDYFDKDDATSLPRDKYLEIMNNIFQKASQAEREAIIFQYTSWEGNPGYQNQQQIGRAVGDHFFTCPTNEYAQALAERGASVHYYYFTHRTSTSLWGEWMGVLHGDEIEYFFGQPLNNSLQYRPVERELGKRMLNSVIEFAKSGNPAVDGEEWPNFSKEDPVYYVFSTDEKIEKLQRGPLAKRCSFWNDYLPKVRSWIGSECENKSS
Protocol: Acetylcholinesterase inhibition was conducted on homogenates of whole-body Ae. aegypti and M. domestica heads using Ellman’s method. For Ae. aegypti, 10 whole female adults were placed in 2 mL microcentrifuge screw cap tubes with 3–5.2 mm zircon/silica beads and homogenized in 500 μL of sodium phosphate buffer (100 mM, pH 7.8) using a Precellys Evolution bead beater (Bertin Corp., Rockville, MD, USA) set to two 15-s pulses of 5600 rpm. Afterward, 500 μL of Triton X-100 buffer (100 mM sodium phosphate, pH 7.8, 0.6% Triton X-100) was added to each tube (final Triton X-100 concentration: 0.3%), inverted several times to mix up the sample, and then centrifuged at 10,000× g for 4 min at 4 °C. The supernatant was used as the enzyme source. The same process was carried out with M. domestica, except three heads were processed in a 1000:1000 μL sodium phosphate buffer and Triton X-100 buffer in the same manner as just described.
Concentration responses were conducted in the wells of a 96-well, clear, flat-bottomed plate. Inhibitor solutions of methomyl or monoterpenoids were first dissolved in DMSO (dimethyl sulfoxide) and then diluted in sodium phosphate buffer (100 mM, pH 7.8, DMSO concentration of 1%). A volume of 10 μL of the inhibitor solution was added to each well, along with 90 μL of sodium phosphate buffer, and finally 10 μL of homogenate. This was incubated on a plate shaker at 400 rpm for 10 min at room temperature. The final concentrations for methomyl were 100 μM, 10 μM, 1 μM, 100 nM, 10 nM, 1 nM, and 0 nM. For the monoterpenoids, the same range was used except the top concentration was 1 mM and the bottom non-zero concentration was 10 nM. The final concentration of DMSO in all wells was 0.09%.
After the 10-min incubation, 100 μL of Ellman’s reagent prepared in sodium phosphate buffer and each corresponding inhibitor concentration were added to the wells using a multichannel pipette.
as §3

[6] = animal and route not given; cited from earlier work
rat = conditions: in vivo; cited from earlier work
rabbit = conditions: ref 32,33 (L-fenchone), 35,36 (Permethrin), 37 (Methomyl); cited from earlier work
[7] = cited from earlier work
[8] = 10 μg synergist per Ae. aegypti
[9] = 2 μg synergist + methomyl, >+20 potentiation, <−20 antagonism, −20 to +20 additive
[10] = 10 μg synergist + methomyl, >+20 potentiation, <−20 antagonism, −20 to +20 additive
[11] = 24 h, topical, adult females, susceptible strain
[12] = 10.2 μg PBO, 70 μg carvone, 190 μg menthone, 80 μg fenchone per fly
[13] = near-sublethal synergist dose + permethrin, >+20 potentiation, <−20 antagonism, −20 to +20 additive

## CC(C)[C@@H]1CC[C@@H](C)CC1=O [Menthone, L-menthone]
Aedes aegypti [1]; 2 μg synergist + permethrin 0.6 ng/mosquito
  1-h% Mean Knockdown ± SEM, Mixture: 100 ± 0%
Aedes aegypti [1]; 2 μg synergist + permethrin
  1-h knockdown Co-Toxicity Factor: 19.8
  24-h mortality Co-Toxicity Factor: 132
Aedes aegypti [1]; 2 μg synergist per Ae. aegypti
  1-h% Mean Knockdown ± SEM, Synergist Alone: 7.5 ± 4.8%
  24-h% Mean Mortality ± SEM, Synergist Alone: 5 ± 2.9%
Aedes aegypti [1]; 10 μg synergist + permethrin 0.6 ng/mosquito
  1-h% Mean Knockdown ± SEM, Mixture: 100 ± 0%
Aedes aegypti [1]; 10 μg synergist + permethrin
  1-h knockdown Co-Toxicity Factor: 13
  24-h mortality Co-Toxicity Factor: 83
Aedes aegypti [1]; [8]
  1-h% Mean Knockdown ± SEM, Synergist Alone: 12.5 ± 4.8%
  24-h% Mean Mortality ± SEM, Synergist Alone: 15 ± 5%
Aedes aegypti [1]; 24-h mortality, 2 μg synergist
  times as strong a synergist of permethrin as PBO: 5.3
Aedes aegypti [2]; 2 μg applied
  1-h% Mean Knockdown ± SEM, Synergist Alone: 7.5 ± 4.8%
  24-h% Mean Mortality ± SEM, Synergist Alone: 5 ± 2.9%
  48-h% Mean Mortality ± SEM, Synergist Alone: 7.5 ± 2.5%
Aedes aegypti [2]; 2 μg synergist + methomyl 6 ng/mosquito
  1-h% Mean Knockdown ± SEM, Mixture: 100 ± 0%
Aedes aegypti [2]; [9]
  1-h knockdown Co-Toxicity Factor: 0
  48-h mortality Co-Toxicity Factor: 7
Aedes aegypti [2]; 10 μg applied
  1-h% Mean Knockdown ± SEM, Synergist Alone: 12.5 ± 4.8%
  24-h% Mean Mortality ± SEM, Synergist Alone: 15 ± 5%
  48-h% Mean Mortality ± SEM, Synergist Alone: 22.5 ± 7.5%
Aedes aegypti [2]; 10 μg synergist + methomyl 6 ng/mosquito
  1-h% Mean Knockdown ± SEM, Mixture: 100 ± 0%
Aedes aegypti [2]; [10]
  1-h knockdown Co-Toxicity Factor: 0
  24-h mortality Co-Toxicity Factor: 29
  48-h mortality Co-Toxicity Factor: 7
Aedes aegypti [2]; 24-h mortality, 2 μg synergist
  times as effective a synergist of methomyl as PBO: 2.0
Aedes aegypti [3]; [11]
  LD10 (95% CI): 5000 (1000–6300) b ng/mg body weight
  LD90 (95% CI): 10,000 (8500–13,100) c ng/mg body weight
Aedes aegypti [3]; at LD10
  times as toxic as fenchone: about 1.5
Aedes aegypti [3]; at LD50
  times as toxic as fenchone: about 1.5
Aedes aegypti [3]; at LD90
  times as toxic as fenchone: about 4.2
Musca domestica [4]; [12]
  1-h% Mean Knockdown ± SEM, Synergist Alone: 4 ± 2.4%
  24-h% Mean Mortality ± SEM, Synergist Alone: 0 ± 0%
Musca domestica [4]; 24-h mortality
  times as potent a synergist of permethrin as PBO: 0.9
Musca domestica [4]; near-sublethal synergist dose (10.2 μg PBO, 70 μg carvone, 190 μg menthone, 80 μg fenchone) + permethrin 18 ng
  1-h% Mean Knockdown ± SEM, Mixture: 95 ± 2.9%
Musca domestica [4]; [13]
  1-h knockdown Co-Toxicity Factor: 12.6
  24-h mortality Co-Toxicity Factor: 48.4
Musca domestica [5]
  LD10 (95% CI): 5300 (5100–5400) c ng/mg body weight
  LD90 (95% CI): 8800 (8400–9400) c ng/mg body weight
acetylcholinesterase
  inhibition at 1000 µM: 3.7 ± 1.2%

## CC(C)=C1CC[C@@H](C)CC1=O [pulegone]
[6]
  LD50: 2000 to 3000 mg/kg

## CC1(C)C(C=C(Cl)Cl)C1C(=O)OCc1cccc(Oc2ccccc2)c1 (stereo not drawn) [Permethrin, reference compound]
rat
  Oral LD50: 430–4000 (rt) mg compound per kg body weight
rabbit
  Dermal LD50: 2000 (rb) mg compound per kg body weight
Aedes aegypti [1]; permethrin 0.6 ng/mosquito
  1-h% Mean Knockdown ± SEM, Permethrin Alone: 76 ± 9.2% and 87.5 ± 6.3%
  24-h% Mean Mortality ± SEM, Permethrin Alone: 27.5 ± 4.8%
Aedes aegypti [1]; permethrin 0.6 ng/mosquito, listed as permethrin
  24-h% Mean Mortality ± SEM, Permethrin Alone: 36 ± 6%
Aedes aegypti [3]; [11]
  LD10 (95% CI): 0.23 (0.12–0.33) a ng/mg body weight
  LD50 (95% CI): 0.58 (0.45–0.71) a ng/mg body weight
  LD90 (95% CI): 1.41 (1.08–2.24) a ng/mg body weight
[7]
  aerobic soil half-life: 11.6 to 113 days
Musca domestica [4]; permethrin 18 ng
  1-h% Mean Knockdown ± SEM, Permethrin Alone: 80 ± 7.3%
  24-h% Mean Mortality ± SEM, Permethrin Alone: 58 ± 10.1%
Musca domestica [5]
  LD10 (95% CI): 0.46 (0.37–0.56) a ng/mg body weight
  LD50 (95% CI): 0.84 (0.79–0.93) a ng/mg body weight
  LD90 (95% CI): 1.5 (1.4–1.7) a ng/mg body weight
